Tests used:
Assay type in all cases: in vivo
[1] = test system: Echinochloa crus-galli (ECHCG); test: Biological Example 1 glasshouse screen, post-emergence herbicidal activity; conditions: 312 h, application rate 250 g/ha, evaluated after 13 days, read-out: ECHCG percentage phytotoxicity
Summary of the method: (§1)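 Read-out: visual percentage phytotoxicity at 13 days, 0% no damage to 100% total damage. Spray solution of unformulated compound in 50:50 acetone/water plus 0.5% Tween 20, applied to potted plants one day after sowing (pre) or after 8 days' growth (post).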

[2] = test system: Alopecurus myosuroides (ALOMY); test: as above; conditions: 312 h, application rate 250 g/ha, evaluated after 13 days, read-out: ALOMY percentage phytotoxicity
Summary of the method: as §1

Solanum nigrum (SOLNI) [3] = test: Biological Example 1 glasshouse screen, pre-emergence herbicidal activity; conditions: application rate 250 g/ha, evaluated after 13 days
Description: (§2) Seeds of a variety of test species were sown in standard soil in pots. After cultivation for one day (pre-emergence) or after 8 days cultivation (post-emergence) under controlled conditions in a glasshouse (at 24/16°C., day/night; 14 hours light; 65% humidity), the plants were sprayed with an aqueous spray solution derived from the formulation of the “technical”(i.e. unformulated) active ingredient in acetone/water (50:50) solution containing 0.5% Tween 20 (polyoxyethylene sorbitan monolaurate, CAS Registry Number 9005-64-5). The test plants were then grown in a glasshouse under controlled conditions in a glasshouse (at 24/16°C., day/night; 14 hours light; 65% humidity) and watered twice daily. After 13 days for pre- or post-emergence, the test was evaluated visually, and an assessed percentage phytotoxicity score given for each herbicidal application on each plant/weed species (with 100%=total damage to plant; 0%=no damage to plant).
(§3) Test plants: Alopecurus myosuroides (ALOMY), Setaria faberi (SETFA), Echinochloa crus-galli (ECHCG), Solanum nigrum (SOLNI), Amaranthus retroflexus (AMARE) and Ipomoea hederacea (IPOHE). ALOMY, SETFA and ECHCG are grassy monocotyledonous weeds. SOLNI, AMARE and IPOHE are dicotyledonous (broadleaved) weeds.

[4] = test system: Ipomoea hederacea (IPOHE); test: as above; conditions: application rate 250 g/ha, evaluated after 13 days
Description: as §2, §3

Setaria faberi (SETFA) [5] = test: as above; conditions: application rate 250 g/ha, evaluated after 13 days
Description: as §2, §3

[6] = test system: Amaranthus retroflexus (AMARE); test: as above; conditions: application rate 250 g/ha, evaluated after 13 days
Description: as §2, §3

Solanum nigrum (SOLNI) [7] = test: Biological Example 1 glasshouse screen, post-emergence herbicidal activity; conditions: application rate 250 g/ha, evaluated after 13 days
Description: as §2, §3

[8] = test system: Ipomoea hederacea (IPOHE); test: as above; conditions: application rate 250 g/ha, evaluated after 13 days
Description: as §2, §3

Setaria faberi (SETFA) [9] = test: as above; conditions: application rate 250 g/ha, evaluated after 13 days
Description: as §2, §3

[10] = test system: Amaranthus retroflexus (AMARE); test: as above; conditions: application rate 250 g/ha, evaluated after 13 days
Description: as §2, §3

[11] = test system: Echinochloa crus-galli (ECHCG); test: Biological Example 2 post-emergence herbicidal activity (comparative data); conditions: 312 h, read-out: ECHCG percentage phytotoxicity; for pest or weed control at 15.625 g/ha: 15.625 g/ha application rate; for pest or weed control at 62.5 g/ha: 62.5 g/ha application rate
Description: as §2
(§4) Comparative herbicidal data are given for certain exemplified compounds with 4-(prop-1-ynyl)-2,6-dimethylphenyl or 4-(chloroethynyl)-2,6-dimethylphenyl headgroups, compared to the corresponding comparative compounds with 4-ethynyl-2,6-dimethylphenyl headgroups, as follows.
(§5) Except where specified otherwise, the glasshouse screen for herbicidal activity is substantially the same as that presented in Biological Example 1 hereinabove. The weed abbreviations are as defined in Biological Example 1.

[12] = test system: Alopecurus myosuroides (ALOMY); test: as above; conditions: 312 h, read-out: ALOMY percentage phytotoxicity; for pest or weed control at 15.625 g/ha: 15.625 g/ha application rate; for pest or weed control at 62.5 g/ha: 62.5 g/ha application rate
Description: as §2, §4, §5

Setaria faberi (SETFA) [13] = test: as above
Description: as §2, §4, §5

[14] = test system: Echinochloa crus-galli (ECHCG); test: Biological Example 1 glasshouse screen, pre-emergence herbicidal activity; conditions: 312 h, application rate 250 g/ha, evaluated after 13 days, read-out: ECHCG percentage phytotoxicity
Summary of the method: as §1

[15] = test system: Alopecurus myosuroides (ALOMY); test: as above; conditions: 312 h, application rate 250 g/ha, evaluated after 13 days, read-out: ALOMY percentage phytotoxicity
Summary of the method: as §1

| Compound | pest or weed control at 250 g/ha [1] | pest or weed control at 250 g/ha [2] | SOLNI percentage phytotoxicity (Solanum nigrum (SOLNI) [3]) | IPOHE percentage phytotoxicity [4] | SEFTA percentage phytotoxicity (Setaria faberi (SETFA) [5]) | AMARE percentage phytotoxicity [6] | SOLNI percentage phytotoxicity (Solanum nigrum (SOLNI) [7]) | IPOHE percentage phytotoxicity [8] | SEFTA percentage phytotoxicity (Setaria faberi (SETFA) [9]) | AMARE percentage phytotoxicity [10] | pest or weed control at 15.625 g/ha [11] | pest or weed control at 62.5 g/ha [11] | pest or weed control at 15.625 g/ha [12] | pest or weed control at 62.5 g/ha [12] | SETFA percentage phytotoxicity (Setaria faberi (SETFA) [13]; 15.625 g/ha application rate) | SETFA percentage phytotoxicity (Setaria faberi (SETFA) [13]; 62.5 g/ha application rate) | pest or weed control at 250 g/ha [14] | pest or weed control at 250 g/ha [15] |
| --- | --- | --- | --- | --- | --- | --- | --- | --- | --- | --- | --- | --- | --- | --- | --- | --- | --- | --- |
| Cc1cc(C#CCl)cc(C)c1C1C(=O)CCC1=O [Compound A-16] | 100% | 50% | 10% | 0% | 90% | 40% | 20% | 10% | 70% | 10% | 70% | 90% | 10% | 10% | 0% | 80% | 100% | 50% |
| Cc1cc(C#CCl)cc(C)c1C1C(=O)C2C(C1=O)[C@H]1CC[C@@H]2O1 (stereo partly drawn) [Compound A-17] | 100% | 80% | 80% | 80% | 100% | 100% | 70% | 70% | 90% | 10% | 100% | 100% | 60% | 70% | 80% | 80% | 100% | 80% |

Reference: US9107415B2, “2-(substituted-phenyl)-cyclopentane-1,3-dione compounds, and derivatives thereof” (Syngenta Limited, priority 2011, dated 2015)
